Source: patent US9560852B2, “Combinations of biological control agents and insecticides or fungicides” (Bayer Intellectual Property GmbH, priority 2008, dated 2017)

What was measured:
Format in all cases: in vivo
cotton seed = assay: Root system enhancement by neonicotinoid seed treatment, WinRhizo root analysis; conditions: 28 days after planting, fungicide base plus insecticide seed treatment
Experimental: In this experiment cotton seed was treated with a fungicide base and one of three commonly used neonicotinoid insecticides: imidacloprid (sold under the trademark GAUCHO 600@0.375 mg ai/seed), clothianidin (sold under the trademark PONCHO 600@0.375 mg ai/seed), and thiomethoxam (sold under the trademark CRUISER@0.34 mg ai/seed).
Fifty seeds from each of the four treatments were planted. […] Seedlings were harvested 28 days after planting and analyzed using the WinRhizo® root analysis system. There was no significant difference in germination.
In Table 1, a comparison of Length, Surface Area, Volume, and Tips/Forks/Crossings, was made through the analysis of 40-45 plants per treatment and by averaging 10 repetitions bracketing the median for each category.

[1] = system: Soybeans (Variety-S2743-4RR); assay: Soybean seed treatment in standard soil, height and WinRhizo root system analysis; conditions: 28 days
From the text: (§1) Soybeans (Variety-S2743-4RR) were planted with a base fungicide package and imidacloprid (sold under the trademark GAUCHO 600@62.5 gm AI/100 kg), a biological nematicide, or a combination of both. The seed were then planted in standard soil and soil infested with Soybean Cyst nematodes. Plants were harvested 28 days later (˜50 plants/treatment/soil type) and compared by height and by a WinRhizo® root system analysis (length, surface area, volume, tips, forks, and crossings (T/F/C))

[2] = Soybean seed treatment in soil infested with Soybean Cyst nematodes, height and WinRhizo root system analysis; conditions: SCN-infested soil versus standard soil, same treatment
From the text: as §1
(§2) The final column of Table 2 compares the total average percent difference in each of the treatments with soybean cyst nematode pressure. The plants with the insecticide alone fared the worst with stunted growth both above and below the soil and a total average reduction of 53%. […] The best overall treatment contained both the biological nematicide and the insecticide and there was only an 8% difference in overall plant development.

Soybean Cyst nematodes = assay: as above
From the text: as §1, §2

[3] = soil infested with Soybean Cyst nematodes (SCN), 28 days

| SMILES | Length (cotton seed) | SurfArea (cotton seed) | T/F/C (Tips/Forks/Crossings) (cotton seed) | Volume (cotton seed) | Height [1] | Length [1] | SurfArea [1] | T/F/C [1] | Volume [1] | % difference (total average percent difference with soybean cyst nematode pressure) ([2]; listed as NI) | % difference (total average percent difference with soybean cyst nematode pressure) ([2]; listed as insecticide) | direct nematicidal activity (Soybean Cyst nematodes; insecticide alone) | Height (Soybean Cyst nematodes; [3]) | Length (Soybean Cyst nematodes; [3]) | SurfArea (Soybean Cyst nematodes; [3]) | T/F/C (Soybean Cyst nematodes; [3]) | Volume (Soybean Cyst nematodes; [3]) |
| --- | --- | --- | --- | --- | --- | --- | --- | --- | --- | --- | --- | --- | --- | --- | --- | --- | --- |
| CN/C(=N\[N+](=O)[O-])NCc1cnc(Cl)s1 [Clothianidin, clothianidin] | 88.11 a cm | 16.77 a cm^2 | 93.93 a | 0.29 a cm^3 |  |  |  |  |  |  |  |  |  |  |  |  |  |
| O=[N+]([O-])NC1=NCCN1Cc1ccc(Cl)nc1 [Imidacloprid, imidacloprid] | 92.56 a cm | 20.11 a cm^2 | 85.60 a | 0.35 a cm^3 | 26.78 cm | 281.93 cm | 66.40 cm^2 | 497.68 | 1.25 cm^3 | 52.52% | 53% | no direct nematicidal activity | 19.09 cm | 167.41 cm | 44.51 cm^2 | 283.90 | 0.97 cm^3 |
| CN1COCN(Cc2cnc(Cl)s2)/C1=N\[N+](=O)[O-] [Thiomethoxam, thiomethoxam] | 95.01 a cm | 17.43 a cm^2 | 77.17 a | 0.28 a cm^3 |  |  |  |  |  |  |  |  |  |  |  |  |  |
